# Reference: ChEMBL document CHEMBL1201862, “PubChem BioAssay data set” (2004)
# Activity calls are given as the source filed them.
# What was measured:
# [1] = HEK-293T viability loss after treatment – luminescence, T-cell screen hits, cytotoxicity control for TCR NF-kB inhibitor project, dose response (AID 489026); assay type: functional, cell-based;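 also: cells exposed to compound about 14 hours before the viability readout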
# [2] = loss of viability in HepG2 cells – cell-based, CellTiter-Glo, cherry-picked, cytotoxicity control for Shn3 inhibitor project, dose response (AID 624134); assay type: functional
# [3] = non-specific 3'UTR reporter inhibition in Clone20-Shn3RL – cell-based, Renilla luciferase, cherry-picked, counter-screen for Shn3 inhibitor project, dose response (AID 624133); assay type: functional
# [4] = reduction of Shn3 3'UTR-driven luciferase in osteoblasts – cell-based, Clone20 osteoblasts, firefly luciferase, cherry-picked, dose response (AID 624132); assay type: functional;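 also: firefly luciferase luminescence from reporter carrying the Shn3 3'UTR in osteoblasts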
# [5] = target: T1, Histone-lysine N-methyltransferase NSD2 (Homo sapiens, UniProt O96028); assay type: biochemical
# T1 sequence (O96028 whole entry): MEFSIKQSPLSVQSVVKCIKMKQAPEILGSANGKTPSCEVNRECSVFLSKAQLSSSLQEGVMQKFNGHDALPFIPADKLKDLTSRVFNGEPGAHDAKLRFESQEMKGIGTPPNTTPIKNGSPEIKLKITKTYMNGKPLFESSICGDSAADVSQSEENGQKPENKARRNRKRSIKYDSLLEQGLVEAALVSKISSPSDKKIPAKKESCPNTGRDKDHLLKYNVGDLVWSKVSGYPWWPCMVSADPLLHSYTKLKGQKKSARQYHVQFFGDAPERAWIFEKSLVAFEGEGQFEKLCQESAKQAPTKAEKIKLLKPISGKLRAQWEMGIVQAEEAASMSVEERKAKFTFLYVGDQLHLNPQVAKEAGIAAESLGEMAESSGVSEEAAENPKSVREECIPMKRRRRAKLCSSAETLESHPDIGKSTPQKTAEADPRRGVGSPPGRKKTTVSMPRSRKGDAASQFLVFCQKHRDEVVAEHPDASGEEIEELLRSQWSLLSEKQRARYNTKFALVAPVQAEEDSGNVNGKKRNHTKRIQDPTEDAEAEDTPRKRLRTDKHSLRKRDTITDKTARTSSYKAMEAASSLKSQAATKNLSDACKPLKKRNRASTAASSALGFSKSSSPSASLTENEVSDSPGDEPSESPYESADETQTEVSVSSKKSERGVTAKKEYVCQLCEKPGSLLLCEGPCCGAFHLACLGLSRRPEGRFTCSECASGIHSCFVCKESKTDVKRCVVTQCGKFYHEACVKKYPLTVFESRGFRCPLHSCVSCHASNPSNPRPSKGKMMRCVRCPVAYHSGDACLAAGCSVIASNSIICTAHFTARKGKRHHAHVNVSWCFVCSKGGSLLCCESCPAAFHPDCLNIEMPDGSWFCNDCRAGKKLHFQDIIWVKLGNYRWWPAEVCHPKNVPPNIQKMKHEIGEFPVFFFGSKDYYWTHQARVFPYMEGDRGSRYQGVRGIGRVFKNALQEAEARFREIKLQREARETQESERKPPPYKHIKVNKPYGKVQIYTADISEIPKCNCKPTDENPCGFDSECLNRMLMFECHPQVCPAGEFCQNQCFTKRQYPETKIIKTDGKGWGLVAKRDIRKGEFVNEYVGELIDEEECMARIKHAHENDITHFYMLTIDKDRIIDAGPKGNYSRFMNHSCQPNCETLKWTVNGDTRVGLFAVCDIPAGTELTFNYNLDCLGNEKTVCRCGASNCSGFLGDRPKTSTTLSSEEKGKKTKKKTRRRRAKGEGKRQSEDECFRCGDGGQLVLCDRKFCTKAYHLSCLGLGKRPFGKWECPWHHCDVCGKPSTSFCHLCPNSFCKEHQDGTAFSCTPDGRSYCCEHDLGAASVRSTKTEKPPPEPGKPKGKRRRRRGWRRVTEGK
# [6] = off-target signal loss in HeLa-CEM21 co-culture – HeLa F-luc CTL cells, cherry-picked, counter-screen for HIV-1 Env fusion inhibitor project, dose response (AID 652040); assay type: functional, cell-based;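 also: potency for signal decrease marking cytotoxic or nonspecific inhibition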
# [7] = blockers of HIV-1 envelope-mediated cell-cell fusion – cherry-pick, dose response (AID 652057); assay type: functional, cell-based
# [8] = blockers of HIV-1 ZM109 envelope-driven cell-cell fusion – HeLa effector, CEM target cells, luciferase, cherry-pick, dose response (AID 652058); assay type: functional, cell-based;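 also: luciferase signal from HIV-1 Env mediated cell-cell fusion of effector and target cells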
# [9] = target: Genome polyprotein (dengue virus type 2, UniProt P29990); experiment: flavivirus cap methylation enzyme inhibition – biochemical, confirmation dose response, primary screen (AID 588689); assay type: functional
# Genome polyprotein, sequence (P29990 2492-3391 limits assumed): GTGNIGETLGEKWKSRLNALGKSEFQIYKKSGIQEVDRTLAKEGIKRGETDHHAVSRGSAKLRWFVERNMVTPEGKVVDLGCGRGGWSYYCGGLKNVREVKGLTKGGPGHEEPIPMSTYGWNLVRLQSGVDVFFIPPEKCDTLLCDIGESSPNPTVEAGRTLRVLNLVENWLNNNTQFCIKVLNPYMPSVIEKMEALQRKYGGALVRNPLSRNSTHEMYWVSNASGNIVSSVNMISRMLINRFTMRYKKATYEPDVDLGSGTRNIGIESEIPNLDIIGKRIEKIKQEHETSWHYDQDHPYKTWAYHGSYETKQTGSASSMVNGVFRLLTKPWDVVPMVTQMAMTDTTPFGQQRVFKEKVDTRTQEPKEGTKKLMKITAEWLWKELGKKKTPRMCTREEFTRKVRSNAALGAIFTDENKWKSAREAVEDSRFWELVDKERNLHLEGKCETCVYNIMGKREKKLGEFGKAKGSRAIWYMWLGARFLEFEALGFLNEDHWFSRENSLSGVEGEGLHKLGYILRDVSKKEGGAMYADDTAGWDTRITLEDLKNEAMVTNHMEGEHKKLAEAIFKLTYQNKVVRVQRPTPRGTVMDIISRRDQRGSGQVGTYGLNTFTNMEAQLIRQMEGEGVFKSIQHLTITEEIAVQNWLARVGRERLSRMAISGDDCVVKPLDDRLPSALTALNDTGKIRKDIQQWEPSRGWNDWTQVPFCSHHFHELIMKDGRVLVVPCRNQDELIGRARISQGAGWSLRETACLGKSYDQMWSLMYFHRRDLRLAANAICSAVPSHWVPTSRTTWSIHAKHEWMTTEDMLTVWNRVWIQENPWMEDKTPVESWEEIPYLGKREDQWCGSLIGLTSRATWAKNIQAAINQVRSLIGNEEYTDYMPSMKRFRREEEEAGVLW
# [10] = target: Induced myeloid leukemia cell differentiation protein Mcl-1 (Homo sapiens, UniProt Q07820); assay type: functional
# Induced myeloid leukemia cell differentiation protein Mcl-1, sequence (Q07820 whole entry): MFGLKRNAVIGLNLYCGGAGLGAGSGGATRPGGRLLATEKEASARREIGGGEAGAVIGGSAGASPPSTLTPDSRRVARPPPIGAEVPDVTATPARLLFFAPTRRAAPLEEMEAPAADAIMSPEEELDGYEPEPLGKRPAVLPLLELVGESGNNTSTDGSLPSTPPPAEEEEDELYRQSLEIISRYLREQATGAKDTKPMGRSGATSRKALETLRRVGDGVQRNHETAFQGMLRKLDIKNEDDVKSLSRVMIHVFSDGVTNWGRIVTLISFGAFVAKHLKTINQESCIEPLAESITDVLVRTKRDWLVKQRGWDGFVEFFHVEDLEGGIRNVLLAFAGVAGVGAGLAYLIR
# [11] = target: Cytochrome P450 2D6 (Homo sapiens, UniProt P10635);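 also: CYP2D6 member of a cytochrome P450 panel assay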
# Cytochrome P450 2D6, sequence (P10635 whole entry): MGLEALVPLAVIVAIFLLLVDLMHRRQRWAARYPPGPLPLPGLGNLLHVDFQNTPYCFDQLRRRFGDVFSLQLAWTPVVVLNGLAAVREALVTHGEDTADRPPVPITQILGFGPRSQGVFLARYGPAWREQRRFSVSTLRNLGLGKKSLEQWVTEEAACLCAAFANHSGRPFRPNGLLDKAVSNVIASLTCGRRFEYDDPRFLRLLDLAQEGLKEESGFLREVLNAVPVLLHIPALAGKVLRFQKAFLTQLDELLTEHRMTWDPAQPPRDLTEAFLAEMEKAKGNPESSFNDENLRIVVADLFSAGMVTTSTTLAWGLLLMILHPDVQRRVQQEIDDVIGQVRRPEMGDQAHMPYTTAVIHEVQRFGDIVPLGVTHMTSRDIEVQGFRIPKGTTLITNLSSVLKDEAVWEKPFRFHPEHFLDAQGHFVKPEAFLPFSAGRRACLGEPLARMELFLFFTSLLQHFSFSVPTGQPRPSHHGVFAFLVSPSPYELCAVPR
# [12] = target: FAD-linked sulfhydryl oxidase ALR (Homo sapiens, UniProt P55789); experiment: ALR-catalysed DTT oxidation blockers – biochemical, H2O2 detection, luminescence, cherry-pick, dose response (AID 493248)
# FAD-linked sulfhydryl oxidase ALR, sequence (P55789 whole entry): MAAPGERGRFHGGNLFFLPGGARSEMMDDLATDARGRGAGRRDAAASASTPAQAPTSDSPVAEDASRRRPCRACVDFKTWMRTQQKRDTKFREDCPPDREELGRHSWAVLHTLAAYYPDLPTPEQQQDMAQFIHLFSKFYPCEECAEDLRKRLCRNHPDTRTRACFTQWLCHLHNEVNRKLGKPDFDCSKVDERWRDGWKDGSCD
# [13] = Trypanosoma cruzi growth suppression in host cells – NIH3T3 host cells, beta-gal luminescence, confirmation (AID 2044); assay type: functional, cell-based;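 also: intracellular parasites grown in NIH/3T3 mouse fibroblasts as host cells; luminescent beta-galactosidase reporter signal from transgenic T. cruzi replicating inside host cells; inhibitors lower the luminescence signal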
# [14] = system: H9c2; experiment: cells; assay type: functional, cell-based; conditions: Rattus norvegicus, H9c2, Myocardium;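 also: confirmatory concentration-response retest of ultra-high-throughput screening hits for modulation of myocardial damage; cell death induced by hydrogen peroxide oxidative stress; compound pretreatment for 60 min then peroxide exposure for 2 h; potency is for protecting the cells against peroxide damage rather than for killing them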
# [15] = NIH3T3 cell viability loss – ATP luminescence, mouse fibroblasts, counter-screen, dose response (AID 2010); assay type: functional, cell-based;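 also: cells exposed to compound for about 90 hours before reading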
# [16] = blockers of bursicon-stimulated LGR2 cAMP reporter – cell-based, HEK293, CRE-luciferase reporter, cherry pick, set 2, dose response (AID 743343); assay type: functional;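 also: transfected cells were stimulated with diluted bursicon conditioned medium after compound addition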
# [17] = blockade of melanocortin 4 receptor signaling – cell-based, plate reader, cherry pick, counter-screen for LGR2 antagonist project, dose response (AID 743444); assay type: functional;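 also: transfected HEK 293 cells stimulated with alpha-MSH peptide; potency of inhibitors of the alpha-MSH evoked signal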
# [18] = target: Cytochrome P450 3A4 (Homo sapiens, UniProt P08684);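 also: CYP3A4 tested as one member of a cytochrome P450 panel screen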
# Cytochrome P450 3A4, sequence (P08684 whole entry): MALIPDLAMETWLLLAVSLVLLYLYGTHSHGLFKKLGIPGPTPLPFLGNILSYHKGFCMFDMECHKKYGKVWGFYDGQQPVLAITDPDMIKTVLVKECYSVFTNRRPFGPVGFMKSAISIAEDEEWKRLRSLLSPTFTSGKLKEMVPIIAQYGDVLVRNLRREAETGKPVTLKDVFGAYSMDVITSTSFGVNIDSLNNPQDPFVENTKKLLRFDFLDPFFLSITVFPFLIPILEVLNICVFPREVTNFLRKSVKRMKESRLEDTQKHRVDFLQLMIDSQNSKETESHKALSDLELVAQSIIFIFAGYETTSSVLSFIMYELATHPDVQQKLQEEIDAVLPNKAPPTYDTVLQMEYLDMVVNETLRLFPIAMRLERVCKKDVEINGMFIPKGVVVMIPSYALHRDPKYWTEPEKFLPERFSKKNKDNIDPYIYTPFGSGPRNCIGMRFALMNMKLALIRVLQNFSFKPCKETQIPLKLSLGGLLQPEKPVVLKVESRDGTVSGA
# [19] = target: Cytochrome P450 2C19 (Homo sapiens, UniProt P33261); experiment: Cytochrome panel assay with activity outcomes. Panel member name: p450-cyp2c19 Compounds with AC50 equal or less than 10 uM are considered active; assay type: functional; conditions: read-out: AC50
# Cytochrome P450 2C19, sequence (P33261 whole entry): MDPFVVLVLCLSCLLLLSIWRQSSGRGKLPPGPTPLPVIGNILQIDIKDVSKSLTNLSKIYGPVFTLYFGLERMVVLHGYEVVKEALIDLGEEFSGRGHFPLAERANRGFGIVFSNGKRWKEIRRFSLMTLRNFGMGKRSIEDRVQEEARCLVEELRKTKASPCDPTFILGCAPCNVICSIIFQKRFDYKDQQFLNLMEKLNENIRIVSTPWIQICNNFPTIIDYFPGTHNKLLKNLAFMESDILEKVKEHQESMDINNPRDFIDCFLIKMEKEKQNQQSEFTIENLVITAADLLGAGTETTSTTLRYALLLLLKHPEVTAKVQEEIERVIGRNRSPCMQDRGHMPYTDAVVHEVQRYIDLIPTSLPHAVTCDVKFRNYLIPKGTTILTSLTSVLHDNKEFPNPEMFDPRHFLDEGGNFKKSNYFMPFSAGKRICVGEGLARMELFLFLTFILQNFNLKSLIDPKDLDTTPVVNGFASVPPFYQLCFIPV
# [20] = target: Cytochrome P450 2C9 (Homo sapiens, UniProt P11712)
# Cytochrome P450 2C9, sequence (P11712 whole entry, the tested form may be a part): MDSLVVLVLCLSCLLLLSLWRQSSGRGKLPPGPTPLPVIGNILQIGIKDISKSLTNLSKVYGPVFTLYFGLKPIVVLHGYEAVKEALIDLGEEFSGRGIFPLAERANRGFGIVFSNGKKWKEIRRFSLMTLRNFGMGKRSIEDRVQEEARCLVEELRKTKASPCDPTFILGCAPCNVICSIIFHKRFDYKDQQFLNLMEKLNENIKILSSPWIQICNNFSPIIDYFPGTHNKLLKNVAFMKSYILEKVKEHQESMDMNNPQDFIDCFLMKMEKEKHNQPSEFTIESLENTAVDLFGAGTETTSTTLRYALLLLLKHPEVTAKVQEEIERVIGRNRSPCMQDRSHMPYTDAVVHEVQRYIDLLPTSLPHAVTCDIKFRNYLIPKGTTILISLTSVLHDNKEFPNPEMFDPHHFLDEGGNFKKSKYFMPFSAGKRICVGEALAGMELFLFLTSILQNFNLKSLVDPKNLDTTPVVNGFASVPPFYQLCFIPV
# [21] = HIV-1 AD8 envelope cell-cell fusion blockers – cherry-pick, dose response (AID 652062); assay type: functional, cell-based;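 also: luciferase signal from cell-cell fusion driven by HIV-1 clade B AD8 Env; potency is for inhibitors of fusion seen as a drop in luminescence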
# [22] = target: Luciferin 4-monooxygenase (Photinus pyralis, UniProt P08659); experiment: inhibition of purified Photinus pyralis luciferase – biochemical, luminescence, dose response (AID 1891)
# Luciferin 4-monooxygenase, sequence (P08659 whole entry): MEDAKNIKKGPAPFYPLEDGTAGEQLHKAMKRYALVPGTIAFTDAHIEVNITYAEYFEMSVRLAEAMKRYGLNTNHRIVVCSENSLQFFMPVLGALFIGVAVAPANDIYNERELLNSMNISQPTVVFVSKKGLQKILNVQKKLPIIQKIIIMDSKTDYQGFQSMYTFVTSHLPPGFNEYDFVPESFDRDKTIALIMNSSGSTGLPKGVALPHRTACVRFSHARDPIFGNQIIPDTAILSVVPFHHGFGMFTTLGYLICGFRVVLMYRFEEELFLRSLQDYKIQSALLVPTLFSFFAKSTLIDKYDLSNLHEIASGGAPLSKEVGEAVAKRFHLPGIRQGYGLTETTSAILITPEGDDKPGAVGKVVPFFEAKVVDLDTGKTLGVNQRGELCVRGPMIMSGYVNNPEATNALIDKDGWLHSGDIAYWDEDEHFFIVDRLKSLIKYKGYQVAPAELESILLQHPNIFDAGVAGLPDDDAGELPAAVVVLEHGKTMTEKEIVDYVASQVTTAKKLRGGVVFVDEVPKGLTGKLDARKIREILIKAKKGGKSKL
# [23] = Luminescence Cell-Based Dose Confirmation HTS to Identify Inhibitors of Platelet Dense Granule Release. [Related pubchem assays: 1663 (Primary HTS), 1678 (Summary of Project)]; assay type: functional
# [24] = system: INS1; experiment: INS-1E survival protection against cytokine death – cell-based, luminescence, retest, dose response (AID 449756); assay type: functional; conditions: Rattus norvegicus;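 also: cell death triggered by IL-1 beta plus TNF-alpha plus IFN-gamma mixture; protective hits raise ATP signal compared with cytokine alone wells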
# [25] = target: T2, Heat shock factor protein 1 (Mus musculus, UniProt P38532); experiment: enhancement of HSF1-driven luciferase signal – cell-based, NIH3T3, luminescence, dose retest, confirmation (AID 435004); assay type: functional;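 also: stress induced by proteasome inhibitor MG132 added 30 min after compound; luciferase reporter driven by HSF1 response element in NIH3T3 cells; actives raise luminescence as potentiators of the MG132 stress response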
# T2 sequence (P38532 whole entry): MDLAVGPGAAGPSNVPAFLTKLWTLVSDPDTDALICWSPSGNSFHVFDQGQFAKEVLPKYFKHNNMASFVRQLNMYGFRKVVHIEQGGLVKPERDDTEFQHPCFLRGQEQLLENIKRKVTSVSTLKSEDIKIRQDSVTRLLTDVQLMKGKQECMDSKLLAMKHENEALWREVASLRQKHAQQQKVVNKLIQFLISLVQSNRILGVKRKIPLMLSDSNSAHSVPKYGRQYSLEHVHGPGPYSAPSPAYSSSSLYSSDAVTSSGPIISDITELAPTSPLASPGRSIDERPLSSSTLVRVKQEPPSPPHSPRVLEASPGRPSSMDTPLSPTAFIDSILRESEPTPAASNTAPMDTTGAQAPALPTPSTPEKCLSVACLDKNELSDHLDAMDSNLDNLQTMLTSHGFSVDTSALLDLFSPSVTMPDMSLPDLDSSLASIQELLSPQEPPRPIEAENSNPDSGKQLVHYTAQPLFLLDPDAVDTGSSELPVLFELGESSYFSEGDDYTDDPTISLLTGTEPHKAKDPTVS
# [26] = cells; assay type: functional, cell-based; conditions: HEK-CNG
# [27] = target: T3, Galanin receptor type 3 (Homo sapiens, UniProt O60755); experiment: Fluorescence-based cell-based primary high throughput dose response assay to identify antagonists of the Galanin Receptor 3 (GalR3).; assay type: functional
# T3 sequence (O60755 whole entry): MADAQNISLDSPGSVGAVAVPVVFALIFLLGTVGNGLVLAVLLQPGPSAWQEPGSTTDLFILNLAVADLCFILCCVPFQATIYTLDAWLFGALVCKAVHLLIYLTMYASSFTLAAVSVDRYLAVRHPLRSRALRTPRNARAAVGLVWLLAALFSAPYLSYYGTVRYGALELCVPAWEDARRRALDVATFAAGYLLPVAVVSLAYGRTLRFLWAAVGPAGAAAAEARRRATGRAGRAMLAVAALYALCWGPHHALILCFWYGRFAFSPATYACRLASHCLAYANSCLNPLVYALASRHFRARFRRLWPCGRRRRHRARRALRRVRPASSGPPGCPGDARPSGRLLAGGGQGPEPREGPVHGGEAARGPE
smiles,measurement,setting,value
O=C(Nc1cccc(C(F)(F)F)c1)c1sc(Cl)nc1C(F)(F)F,IC50,[1],> 80 µM (inactive)
same,AC50,[2],> 70 µM (inactive)
same,AC50,[3],15.8 µM (active)
same,AC50,[4],9.06 µM (active)
CCOC(=O)NCCc1c(C)nc2c(c(C)nn2C(C)(C)C)c1C,AC50,[5],> 20 µM (inactive)
O=C1c2cccnc2C(Nc2ccc(S(=O)(=O)N3CCCCCC3)cc2)N1Cc1ccccc1 (centres undefined),AC50,[6],32.2 µM (active)
same,AC50,[7],27.2 µM (active)
same,AC50,[8],30.5 µM (active)
CCn1c(SC)nc(=O)c(C(c2ccc(OC)c(O)c2)c2c(O)n(CC)c(SC)nc2=O)c1O,IC50,[9],50 µM (active)
COc1ccc(C(=O)Nc2ccc3[nH]c(-c4cccc(OC)c4)cc(=O)c3c2)cc1,IC50,[1],> 80 µM (inactive)
Cc1ccc(NC(=O)CSc2nc(-c3ccco3)cc(C(F)(F)F)n2)cc1C,IC50,[1],> 80 µM (inactive)
COc1ccc(N2CCC(CNC(=O)Nc3ccc(OC)cc3OC)C2)cc1 (centres undefined),IC50,[10],1.14 µM (active)
same,AC50,[11],28.2 µM (inconclusive)
same,AC50,[12],17.2 µM (active)
COc1ccc(C(=O)Nc2cc(C)nn2-c2nc3ccccc3[nH]2)c(OC)c1,EC50,[13],2.51 µM (active)
same,IC50,[14],7.52 µM (active)
same,EC50,[15],> 60 µM (not active)
Cc1ccc(-c2ccc(/C=C3/NC(=O)NC3=O)o2)cc1[N+](=O)[O-],IC50,[10],4.36 µM (active)
Cc1ccc(-c2nc(-c3ccncc3)no2)c(Cl)c1,AC50,[16],10.3 µM (active)
same,AC50,[17],12.5 µM (active)
O=C(Nc1nc[nH]n1)c1ccc([N+](=O)[O-])cc1[N+](=O)[O-],AC50,[18],14.1 µM (inconclusive)
same,AC50,[19],39.8 µM (inconclusive)
same,AC50,[20],inconclusive
O=C(O)c1[nH]c2ccccc2c1C(c1cccc(O)c1)c1c(C(=O)O)[nH]c2ccccc12,IC50,[9],23.2 µM (active)
CCS(=O)(=O)N1Cc2ccccc2CC1C(=O)NC(C)C12CC3CC(CC(C3)C1)C2 (centres undefined),AC50,[6],4.99 µM (active)
same,AC50,[7],3.24 µM (active)
same,AC50,[21],3.56 µM (active)
same,AC50,[8],3.91 µM (active)
Cc1c(-c2ccccc2)oc2c(C(=O)OCC(=O)Nc3ccc(C(N)=O)cc3)cccc2c1=O,IC50,[14],> 79 µM (inactive)
COc1ccccc1C(=O)NN1C(=O)C2C3C=CC(O3)C2C1=O (centres undefined),EC50,[22],> 112 µM (not active)
same,EC50,[23],> 112 µM (not active)
same,AC50,[18],17.8 µM (inconclusive)
same,AC50,[20],inconclusive
N#Cc1ccc(C(c2nnnn2CCc2ccccc2)N2CCCCCC2)cc1 (centres undefined),AC50,[6],20.2 µM (active)
same,AC50,[7],4.92 µM (active)
same,AC50,[21],10.2 µM (active)
same,AC50,[8],12.1 µM (active)
Cc1ccc(O)c(CNc2cccc3cccnc23)c1,AC50,[24],13.2 µM (active)
same,AC50,[5],> 20 µM (inactive)
COc1ccc(NC(=O)Cc2c(SC)c3ccccc3n2Cc2ccccc2)cc1,IC50,[10],6.18 µM (not active)
O=C(CCCn1c(=S)[nH]c2ccc(Br)cc2c1=O)NCC1CCCO1 (centres undefined),EC50,[25],> 260 µM (inactive)
same,AC50,[18],35.5 µM (inconclusive)
same,AC50,[20],inconclusive
CC(C(=O)NC1CCCC1)N(Cc1ccco1)C(=O)c1snc(C(=O)NC2CCCC2)c1N (centres undefined),IC50,[10],8.77 µM (not active)
CN1CCN(c2ccc(CNS(=O)(=O)Cc3cccc(C(F)(F)F)c3)cc2)CC1,AC50,[24],4.36 µM (active)
same,EC50,[26],> 29.9 µM (inactive)
same,IC50,[27],2.08 µM (active)
O=C(O)CCCN1C(=O)/C(=C\c2ccccc2OCc2ccccc2)SC1=S,IC50,[9],36.7 µM (active)
O=C(Cn1[nH]c(=O)c2ccccc2c1=O)N1CCN(S(=O)(=O)c2ccc(Cl)cc2)CC1,IC50,[14],> 79 µM (inactive)
COc1ccc2nc(O)c(CN(Cc3nnnn3Cc3ccccc3)CC3CCCO3)cc2c1 (centres undefined),AC50,[6],7.73 µM (active)
same,AC50,[7],4.18 µM (active)
same,AC50,[21],33.1 µM (active)
same,IC50,[14],16.5 µM (active)
same,AC50,[8],5.31 µM (active)
CN(C)c1ccc(C(CNC(=O)c2ccccc2Br)c2c[nH]c3ccccc23)cc1 (centres undefined),IC50,[10],2.82 µM (not active)
O=C(COC(=O)c1[nH]nc2ccccc12)NCCc1ccc(Cl)cc1,EC50,[26],> 29.9 µM (inactive)
same,IC50,[27],2.87 µM (active)
Cc1ccc2cc(C#N)c(N3CCN(C(=O)c4cccs4)CC3)nc2c1,IC50,[14],> 79 µM (inactive)
COC(=O)CCCCC1=CCC2C(=O)C=C(O)C2C1 (centres undefined),AC50,[5],> 20 µM (inactive)
Oc1ccc2c(c1)nc(O)c1ccccc12,IC50,[14],> 79 µM (inactive)
C[C@H]1Cn2cnc(C(=O)N3CCN(c4ccccc4)CC3)c2C(=O)N1,AC50,[6],7.64 µM (active)
same,AC50,[7],3.57 µM (active)
same,AC50,[21],13.4 µM (active)
same,AC50,[8],6.04 µM (active)
